In US20250228835A1, “PYRIDINYLOXYPYRIDINES AND RELATED COMPOUNDS AND THEIR USE IN TREATING MEDICAL CONDITIONS” (Rectify Pharmaceuticals, Inc., priority 2024, published 2025):

What was measured:
ABCD2 WT = target: T1, ABCD2 WT (Homo sapiens, UniProt Q9UBJ2); assay: D2 correction dose-response assay: ABCD2 WT HiBit protein expression; type: cell-based; details: HEK-293/ABCD2 WT cells, 24 hours treatment, HiBit luminescence; class combines EC50 and Mean MaxAct (fold); read-out: ABCD2 WT EC50, Emax
T1 construct: expressed in transfected cells
T1 sequence (Q9UBJ2 1-740): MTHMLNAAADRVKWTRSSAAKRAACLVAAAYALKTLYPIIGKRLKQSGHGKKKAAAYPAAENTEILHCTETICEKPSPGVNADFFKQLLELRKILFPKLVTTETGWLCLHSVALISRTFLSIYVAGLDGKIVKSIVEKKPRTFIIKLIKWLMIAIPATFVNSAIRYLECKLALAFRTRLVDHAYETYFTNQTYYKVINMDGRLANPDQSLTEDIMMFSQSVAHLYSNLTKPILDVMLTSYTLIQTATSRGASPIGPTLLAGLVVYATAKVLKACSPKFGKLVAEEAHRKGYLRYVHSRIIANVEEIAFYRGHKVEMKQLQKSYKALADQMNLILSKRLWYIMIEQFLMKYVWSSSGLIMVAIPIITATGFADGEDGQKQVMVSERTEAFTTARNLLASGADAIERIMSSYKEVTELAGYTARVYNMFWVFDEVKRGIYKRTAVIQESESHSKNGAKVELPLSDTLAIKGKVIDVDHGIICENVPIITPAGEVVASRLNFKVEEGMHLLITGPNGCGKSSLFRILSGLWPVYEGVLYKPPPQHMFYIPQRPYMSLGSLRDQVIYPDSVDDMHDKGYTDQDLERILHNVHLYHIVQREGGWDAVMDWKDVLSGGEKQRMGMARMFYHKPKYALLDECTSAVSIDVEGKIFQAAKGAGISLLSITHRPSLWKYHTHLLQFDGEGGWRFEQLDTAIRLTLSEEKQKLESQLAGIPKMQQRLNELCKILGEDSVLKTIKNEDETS
Procedure: Exemplary compounds were evaluated in a D2 correction dose-response assay.
(§1) To assess activity against ABCD2, the compounds were screened in an assay measuring protein expression, using cells transfected with cDNA encoding HiBit-tagged ABCD2 wild-type. Here we describe an assay for measuring the expression of the wild type of human ABCD2 (henceforth referred to as ABCD2 WT) and the use of this assay to measure the efficacy of compounds to increase the expression of ABCD2 WT. The assay was designed to characterize the efficacy and potency of compounds to increase the expression of ABCD2 WT by calculating an Emax and EC50 value. HEK-293 cells stably expressing ABCD2 WT (HEK-293/ABCD2 WT) were used for this assay and were maintained at 37° C. (5% CO2, humidified) in Dulbecco's Modified Eagle Medium (DMEM, Gibco product #12100) supplemented with 10% fetal bovine serum (Biosera product #FB-1058/500), 1% PenStrep (HDB product #15140-122), and 0.5 mg/mL puromycin (Gibco product #A11138-03). For the assay, the HEK-293/ABCD2 WT cells were seeded in white/opaque 384-well plates (Corning product #3570) at 10,000 cells/well in 20 μl growth medium and allowed to settle for 4 hours at 37° C. (5% CO2, humidified). Compound serial dilutions are prepared in DMSO as three hundred times (333×) the final concentration and using a dilution factor of 3 using Bravo (Agilent). After the four-hour incubation period, 60 nL of DMSO solutions are transferred to the assay plate.
(§2) Dose response curves include eleven doses with the top final concentration at 30 μM in 0.3% DMSO. Liquid handling is performed with ECHO 550 Acoustic Liquid Handler (Labcyte). After addition of compound treatment, cells are incubated for 24 hours at 37° C. (5% CO2, humidified). After the 24-hour treatment, plates are allowed to equilibrate to room temperature for 10 minutes. Using Dragonfly Automated Liquid Handler (TTP LabTech), 20 μl of HiBit lytic assay reagent (Promega, product #N3040), which is prepared according to manufacturer's instructions, is added to each well. The plates are rotated at room temperature for 2 minutes and incubated for 1 hour at 25° C. before luminescent signal is acquired using an EnVision Multimode Plate Reader (PerkinElmer).

ABCB4 WT = target: T2, ABCB4 WT (Homo sapiens, UniProt P21439); assay: ABCB4 WT assay: HiBit protein expression; type: cell-based; details: HEK-293 cells stably expressing HiBit-tagged ABCB4 WT; 24 h treatment; top concentration 30 μM; read-out: ABCB4 WT EC50, Emax
T2 construct: expressed in transfected cells
T2 sequence (P21439 whole entry): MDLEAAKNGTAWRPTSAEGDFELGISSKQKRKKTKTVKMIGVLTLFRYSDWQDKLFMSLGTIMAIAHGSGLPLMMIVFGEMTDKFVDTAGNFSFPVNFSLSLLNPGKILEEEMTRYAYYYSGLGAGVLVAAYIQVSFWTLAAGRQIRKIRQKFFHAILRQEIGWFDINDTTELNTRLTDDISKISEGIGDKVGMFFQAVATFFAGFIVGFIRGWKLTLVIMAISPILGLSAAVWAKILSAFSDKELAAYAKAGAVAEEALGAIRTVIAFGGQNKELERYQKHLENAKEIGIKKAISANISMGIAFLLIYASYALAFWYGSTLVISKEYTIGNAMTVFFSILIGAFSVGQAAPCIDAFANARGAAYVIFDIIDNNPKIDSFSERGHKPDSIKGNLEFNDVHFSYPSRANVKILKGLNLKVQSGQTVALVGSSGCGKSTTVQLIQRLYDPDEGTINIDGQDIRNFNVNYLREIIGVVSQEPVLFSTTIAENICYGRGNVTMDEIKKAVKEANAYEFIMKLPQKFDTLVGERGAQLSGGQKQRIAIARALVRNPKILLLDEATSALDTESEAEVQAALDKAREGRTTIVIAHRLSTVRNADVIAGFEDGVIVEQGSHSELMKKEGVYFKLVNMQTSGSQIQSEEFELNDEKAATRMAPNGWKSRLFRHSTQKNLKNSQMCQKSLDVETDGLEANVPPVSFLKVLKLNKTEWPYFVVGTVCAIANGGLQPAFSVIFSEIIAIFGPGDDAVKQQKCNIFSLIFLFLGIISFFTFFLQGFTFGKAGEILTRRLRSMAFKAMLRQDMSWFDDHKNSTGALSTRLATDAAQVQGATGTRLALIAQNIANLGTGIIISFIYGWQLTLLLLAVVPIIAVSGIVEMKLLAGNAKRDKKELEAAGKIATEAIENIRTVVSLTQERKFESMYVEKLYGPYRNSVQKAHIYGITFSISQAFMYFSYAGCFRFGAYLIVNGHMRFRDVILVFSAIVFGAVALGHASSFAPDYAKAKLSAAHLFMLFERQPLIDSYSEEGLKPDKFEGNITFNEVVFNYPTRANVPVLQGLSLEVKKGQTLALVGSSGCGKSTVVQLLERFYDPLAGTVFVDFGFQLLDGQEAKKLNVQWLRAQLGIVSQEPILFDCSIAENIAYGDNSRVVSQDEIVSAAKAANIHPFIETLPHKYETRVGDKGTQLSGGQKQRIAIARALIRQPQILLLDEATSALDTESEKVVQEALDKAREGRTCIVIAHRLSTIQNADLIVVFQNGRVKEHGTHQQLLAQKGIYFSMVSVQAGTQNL
Excerpt: To assess activity against ABCB4, compounds were screened in an assay measuring protein expression, using cells transfected with cDNA encoding HiBit-tagged ABCB4 wild-type.
as §1, with “Described here is” for “To assess activity against ABCD2, the compounds were screened in an assay measuring protein expression, using cells transfected with cDNA encoding HiBit-tagged ABCD2 wild-type. Here we describe”, “ABCB4” for “ABCD2”, “(HEK-293/ABCB4” for “(HEK-293/ABCD2”, “HEK-293/ABCB4” for “HEK-293/ABCD2”
as §2
Results are presented below in Table 5 for ABCB4 WT.

Compound	EC50 (ABCD2 WT) [nM]	EC50 (ABCB4 WT) [nM]
Cc1cc(C2CC2)nc(C)c1Oc1nc(-c2cncc(C#N)c2)ccc1NS(C)(=O)=O [Compound I-4]	< 1000	< 1000
Cc1cc(C)c(Oc2nc(-c3cncc(C#N)c3)ccc2NS(C)(=O)=O)c(C)n1 [Compound I-5]	< 1000	< 1000
Cc1cc(C)c(Oc2nc(-c3ccc(C#N)nc3C)ccc2NS(C)(=O)=O)c(C)c1 [Compound I-6]	< 1000	≥ 25000
Cc1cc(C)c(Oc2nc(-c3ccc(C#N)nc3)ccc2NS(C)(=O)=O)c(C)n1 [Compound I-7]	< 1000	< 1000
Cc1cc(C)c(Oc2nc(-c3cnc(C#N)c(Cl)c3)ccc2NS(C)(=O)=O)c(C)n1 [Compound I-8]	< 1000	< 1000
Cc1cc(C)c(Oc2nc(-c3cncc(Cl)c3)ncc2NS(C)(=O)=O)c(C)c1 [Compound I-9]	< 1000	≥ 25000
Cc1cc(C)c(Oc2nc(-c3cncc(C#N)c3)ncc2NS(C)(=O)=O)c(C)c1 [Compound I-10]	< 1000	≥ 25000
CNS(=O)(=O)c1ccc(-c2cncc(Cl)c2)nc1Oc1c(C)cc(C)cc1C [Compound I-95]	< 1000	< 1000
Cc1cc(C)c(Oc2nc(-c3cncc(Cl)c3)ccc2S(=O)(=O)N2CCCC2)c(C)c1 [Compound I-96]	1000 to 10000	1000 to 10000
Cc1cc(C)c(Oc2nc(-c3cncc(Cl)c3)ccc2S(=O)(=O)N(C)C)c(C)c1 [Compound I-97]	1000 to 10000	1000 to 10000
Cc1cc(C)c(Oc2nc(-c3cncc(Cl)c3)ccc2S(=O)(=O)NC2CC2)c(C)c1 [Compound I-98]	< 1000	< 25000
Cc1cc(C)c(Oc2nc(-c3cncc(Cl)c3)ccc2S(=O)(=O)NC(C)(C)C)c(C)c1 [Compound I-99]	> 25000	≥ 25000
Cc1cc(C)c(Oc2nc(-c3cncc(Cl)c3)ccc2S(N)(=O)=O)c(C)c1 [Compound I-100]	< 1000	≥ 25000
Cc1cc(C)c(Oc2nc(-c3cccc(Cl)c3)ccc2S(=O)(=O)NC2CCOC2)c(C)c1 (centres unmarked) [Compound I-101]	1000 to 10000	≥ 25000
Cc1cc(C)c(Oc2nc(-c3cccc(Cl)c3)ccc2S(N)(=O)=O)c(C)c1 [Compound I-102]	> 25000	≥ 25000
Cc1cc(C)c(Oc2nc(-c3cncc(Cl)c3)ccc2S(C)(=N)=O)c(C)c1 (centres unmarked) [Compound I-103]	1000 to 10000	< 1000
Cc1cc(C)c(Oc2nc(-c3cncc(Cl)c3)ccc2S(C)(=O)=O)c(C)c1 [Compound I-104]	> 25000	1000 to 10000
Cc1cc(C(F)(F)F)nc(C2CC2)c1Oc1nc(-c2cncc(C#N)c2)ccc1S(=O)(=O)NC1CC1 [Compound I-133]	< 1000	1000 to 10000
Cc1cc(C(F)F)nc(C2CC2)c1Oc1nc(-c2cncc(C#N)c2)ccc1N(C)S(=O)(=O)C1CC1 [Compound I-134]	1000 to 10000	< 1000
Cc1cc(C(F)F)nc(C2CC2)c1Oc1nc(-c2cncc(C#N)c2)ccc1N(C)S(C)(=O)=O [Compound I-135]	1000 to 10000	< 1000
Cc1cc(C)c(Oc2nc(-c3cncc(C#N)c3)ccc2N(C)S(=O)(=O)c2cccnc2)c(C2CC2)n1 [Compound I-136]	1000 to 10000	< 1000
Cc1cc(C(F)F)nc(C2CC2)c1Oc1nc(-c2cncc(C#N)c2)ccc1NS(C)(=O)=O [Compound I-137]	< 1000	< 1000
CS(=O)(=O)Nc1ccc(-c2cncc(C#N)c2)nc1Oc1c(C2CC2)nc(C(F)(F)F)nc1C1CC1 [Compound I-138]	< 1000	< 1000
Cc1cc(C(F)(F)F)nc(C2CC2)c1Oc1nc(-c2cncc(C#N)c2)ccc1N(C)S(=O)(=O)C1CC1 [Compound I-139]	1000 to 10000	< 1000
Cc1cc(C(F)(F)F)nc(C2CC2)c1Oc1nc(-c2cncc(C#N)c2)ccc1NS(=O)(=O)C1CC1 [Compound I-140]	< 1000	< 1000
